Assay results published in ChEMBL document CHEMBL1201862, “PubChem BioAssay data set” (2004).
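Tested at 5 concentrations; 48 h exposure; 96-well plates; endpoints linearly interpolated, else capped at highest concentration. Abbreviation: GI50, concentration required for 50% inhibition of growth.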 Calls of active or inactive are those of the source. No stated cut-off is given here; in the data, active = GI50 up to about 1.1 µM and inactive = higher.

Columns and labels:
Experiment in all cases: NCI tumour cell line growth inhibition, 48 h
SNB-75 = tested on: SNB-75
K562 = tested on: K562
OVCAR-8 = tested on: OVCAR-8
MDA-MB-435 = tested on: MDA-MB-435
HCT-116 = tested on: HCT-116
BT-549 = tested on: BT-549
CAKI-1 = tested on: CAKI-1
MDA-MB-231 = tested on: MDA-MB-231
NCI-H522 = tested on: NCI-H522
T47D = tested on: T47D
U-251 = tested on: U-251
OVCAR-3 = tested on: OVCAR-3
EKVX = tested on: EKVX
SF-539 = tested on: SF-539
UACC-257 = tested on: UACC-257
HOP-62 = tested on: HOP-62
MDA-N = tested on: MDA-N
HCC 2998 = tested on: HCC 2998
SK-OV-3 = tested on: SK-OV-3
OVCAR-5 = tested on: OVCAR-5
RPMI-8226 = tested on: RPMI-8226
HOP-92 = tested on: HOP-92
HT-29 = tested on: HT-29
OVCAR-4 = tested on: OVCAR-4
SNB-19 = tested on: SNB-19
SW-620 = tested on: SW-620
A549 = tested on: A549
SF-295 = tested on: SF-295
UACC-62 = tested on: UACC-62
COLO 205 = tested on: COLO 205
SK-MEL-28 = tested on: SK-MEL-28
MOLT-4 = tested on: MOLT-4
HCT-15 = tested on: HCT-15
HL-60 = tested on: HL-60
M14 = tested on: M14
ACHN = tested on: ACHN
MCF7 = tested on: MCF7
Hs-578T = tested on: Hs-578T
786-0 = tested on: 786-0
DU-145 = tested on: DU-145
LOX IMVI = tested on: LOX IMVI
KM12 = tested on: KM12
SF-268 = tested on: SF-268
UO-31 = tested on: UO-31
Malme-3M = tested on: Malme-3M
NCI-H460 = tested on: NCI-H460
PC-3 = tested on: PC-3
NCI/ADR-RES = tested on: NCI/ADR-RES
NCI-H23 = tested on: NCI-H23
SK-MEL-2 = tested on: SK-MEL-2
IGROV-1 = tested on: IGROV-1
SN12C = tested on: SN12C
SK-MEL-5 = tested on: SK-MEL-5
A498 = tested on: A498
CCRF-CEM = tested on: CCRF-CEM
NCI-H226 = tested on: NCI-H226
TK-10 = tested on: TK-10
SR = tested on: SR
RXF 393 = tested on: RXF 393

Cc1cccc(/C=N/NC(=S)NCc2ccccn2)n1
GI50 (SNB-75): 17.6 µM (inactive)
GI50 (K562): 36.1 µM (inactive)
GI50 (OVCAR-8): 32.1 µM (inactive)
GI50 (MDA-MB-435): 36.9 µM (inactive)
GI50 (HCT-116): 29.4 µM (inactive)
GI50 (BT-549): 58.2 µM (inactive)
GI50 (CAKI-1): 26.4 µM (inactive)
GI50 (MDA-MB-231): 33.5 µM (inactive)
GI50 (NCI-H522): 34.3 µM (inactive)
GI50 (T47D): 31 µM (inactive)
GI50 (U-251): 20.7 µM (inactive)
GI50 (OVCAR-3): 74.5 µM (inactive)
GI50 (EKVX): 37.2 µM (inactive)
GI50 (SF-539): 23.4 µM (inactive)
GI50 (UACC-257): 41.7 µM (inactive)
GI50 (HOP-62): 22.2 µM (inactive)
GI50 (MDA-N): 47.2 µM (inactive)
GI50 (HCC 2998): 41.7 µM (inactive)
GI50 (SK-OV-3): 28.3 µM (inactive)
GI50 (OVCAR-5): > 77.1 µM (inactive)
GI50 (RPMI-8226): 44.6 µM (inactive)
GI50 (HOP-92): 25.9 µM (inactive)
GI50 (HT-29): 27.7 µM (inactive)
GI50 (OVCAR-4): > 100 µM (inactive)
GI50 (SNB-19): 47.5 µM (inactive)
GI50 (SW-620): 22.1 µM (inactive)
GI50 (A549): 27.1 µM (inactive)
GI50 (SF-295): 27.5 µM (inactive)
GI50 (UACC-62): 17.7 µM (inactive)
GI50 (COLO 205): 36.1 µM (inactive)
GI50 (SK-MEL-28): 45.8 µM (inactive)
GI50 (MOLT-4): 16.5 µM (inactive)
GI50 (HCT-15): 23.7 µM
GI50 (HL-60): 23.4 µM (inactive)
GI50 (M14): 18.6 µM (inactive)
GI50 (ACHN): 10.4 µM (inactive)
GI50 (MCF7): 31.8 µM (inactive)
GI50 (Hs-578T): > 93.5 µM (inactive)
GI50 (786-0): 17.9 µM (inactive)
GI50 (DU-145): 15.1 µM (inactive)
GI50 (LOX IMVI): 14.7 µM (inactive)
GI50 (KM12): 40.3 µM (inactive)
GI50 (SF-268): 20 µM (inactive)
GI50 (UO-31): 14.8 µM (inactive)
GI50 (Malme-3M): 22.1 µM (inactive)
GI50 (NCI-H460): 15.9 µM (inactive)
GI50 (PC-3): 18.5 µM (inactive)
GI50 (NCI/ADR-RES): 25.2 µM (inactive)
GI50 (NCI-H23): 40.8 µM (inactive)
GI50 (SK-MEL-2): > 100 µM (inactive)
GI50 (IGROV-1): 24 µM (inactive)
GI50 (SN12C): 30.6 µM (inactive)
GI50 (SK-MEL-5): 17.7 µM (inactive)
GI50 (A498): 49.2 µM (inactive)
GI50 (CCRF-CEM): 24.2 µM (inactive)
GI50 (NCI-H226): 29.3 µM (inactive)
GI50 (TK-10): 99.3 µM (inactive)
GI50 (SR): 38.9 µM (inactive)

O=c1c2ccccc2nc(Nc2cccc(Cl)c2)n1/N=C/C=C/c1ccccc1
GI50 (SNB-75): 45.4 µM (inactive)
GI50 (K562): > 100 µM (inactive)
GI50 (OVCAR-8): 39.2 µM (inactive)
GI50 (MDA-MB-435): > 100 µM (inactive)
GI50 (HCT-116): 60.4 µM (inactive)
GI50 (BT-549): > 100 µM (inactive)
GI50 (CAKI-1): > 100 µM (inactive)
GI50 (MDA-MB-231): 71 µM (inactive)
GI50 (NCI-H522): 50.5 µM (inactive)
GI50 (T47D): 64.9 µM (inactive)
GI50 (U-251): 28.8 µM (inactive)
GI50 (OVCAR-3): 73.1 µM (inactive)
GI50 (EKVX): 80.7 µM (inactive)
GI50 (SF-539): 35.7 µM (inactive)
GI50 (UACC-257): 85.9 µM (inactive)
GI50 (HOP-62): 85.5 µM (inactive)
GI50 (MDA-N): > 100 µM (inactive)
GI50 (HCC 2998): 94 µM (inactive)
GI50 (SK-OV-3): 70 µM (inactive)
GI50 (OVCAR-5): > 100 µM (inactive)
GI50 (RPMI-8226): > 100 µM (inactive)
GI50 (HOP-92): 91.2 µM (inactive)
GI50 (HT-29): 61.9 µM (inactive)
GI50 (OVCAR-4): 45.5 µM (inactive)
GI50 (SNB-19): 47.2 µM (inactive)
GI50 (SW-620): 51.5 µM (inactive)
GI50 (A549): 75.3 µM (inactive)
GI50 (SF-295): 60 µM (inactive)
GI50 (UACC-62): 41.3 µM (inactive)
GI50 (COLO 205): > 100 µM (inactive)
GI50 (SK-MEL-28): > 100 µM (inactive)
GI50 (MOLT-4): > 100 µM (inactive)
GI50 (HCT-15): > 100 µM
GI50 (HL-60): > 100 µM (inactive)
GI50 (M14): > 100 µM (inactive)
GI50 (ACHN): 50.7 µM (inactive)
GI50 (MCF7): 26.3 µM (inactive)
GI50 (Hs-578T): 62.8 µM (inactive)
GI50 (786-0): 48.5 µM (inactive)
GI50 (DU-145): > 100 µM (inactive)
GI50 (RXF 393): > 100 µM (inactive)
GI50 (LOX IMVI): > 100 µM (inactive)
GI50 (KM12): > 100 µM (inactive)
GI50 (SF-268): 53 µM (inactive)
GI50 (UO-31): > 100 µM (inactive)
GI50 (Malme-3M): > 100 µM (inactive)
GI50 (NCI-H460): 48.2 µM (inactive)
GI50 (PC-3): 33.7 µM (inactive)
GI50 (NCI/ADR-RES): 63.5 µM (inactive)
GI50 (NCI-H23): 71.9 µM (inactive)
GI50 (SK-MEL-2): > 100 µM (inactive)
GI50 (IGROV-1): > 100 µM (inactive)
GI50 (SN12C): 52.6 µM (inactive)
GI50 (SK-MEL-5): 89.3 µM (inactive)
GI50 (CCRF-CEM): > 100 µM (inactive)
GI50 (NCI-H226): 99.5 µM (inactive)
GI50 (TK-10): > 100 µM (inactive)
GI50 (SR): 29.6 µM (inactive)

O=C(O)c1ccccc1CN1CCCC(C(=O)O)C1 (configuration not stated)
GI50 (SNB-75): > 100 µM (inactive)
GI50 (K562): > 100 µM (inactive)
GI50 (OVCAR-8): > 100 µM (inactive)
GI50 (MDA-MB-435): > 100 µM (inactive)
GI50 (HCT-116): > 100 µM (inactive)
GI50 (BT-549): > 100 µM (inactive)
GI50 (CAKI-1): > 100 µM (inactive)
GI50 (MDA-MB-231): > 100 µM (inactive)
GI50 (NCI-H522): > 100 µM (inactive)
GI50 (T47D): > 100 µM (inactive)
GI50 (U-251): > 100 µM (inactive)
GI50 (OVCAR-3): > 100 µM (inactive)
GI50 (EKVX): > 100 µM (inactive)
GI50 (SF-539): > 100 µM (inactive)
GI50 (UACC-257): > 100 µM (inactive)
GI50 (HOP-62): > 100 µM (inactive)
GI50 (MDA-N): > 100 µM (inactive)
GI50 (SK-OV-3): > 100 µM (inactive)
GI50 (OVCAR-5): > 100 µM (inactive)
GI50 (RPMI-8226): > 100 µM (inactive)
GI50 (HOP-92): > 100 µM (inactive)
GI50 (HT-29): > 100 µM (inactive)
GI50 (OVCAR-4): > 100 µM (inactive)
GI50 (SNB-19): > 100 µM (inactive)
GI50 (SW-620): > 100 µM (inactive)
GI50 (A549): > 100 µM (inactive)
GI50 (SF-295): > 100 µM (inactive)
GI50 (UACC-62): > 100 µM (inactive)
GI50 (COLO 205): > 100 µM (inactive)
GI50 (SK-MEL-28): > 100 µM (inactive)
GI50 (MOLT-4): > 100 µM (inactive)
GI50 (HCT-15): > 100 µM
GI50 (M14): > 100 µM (inactive)
GI50 (ACHN): > 100 µM (inactive)
GI50 (MCF7): > 100 µM (inactive)
GI50 (Hs-578T): > 100 µM (inactive)
GI50 (786-0): > 100 µM (inactive)
GI50 (DU-145): > 100 µM (inactive)
GI50 (RXF 393): > 100 µM (inactive)
GI50 (LOX IMVI): > 100 µM (inactive)
GI50 (KM12): > 100 µM (inactive)
GI50 (SF-268): > 100 µM (inactive)
GI50 (UO-31): > 100 µM (inactive)
GI50 (Malme-3M): > 100 µM (inactive)
GI50 (NCI-H460): > 100 µM (inactive)
GI50 (PC-3): > 100 µM (inactive)
GI50 (NCI/ADR-RES): > 100 µM (inactive)
GI50 (NCI-H23): > 100 µM (inactive)
GI50 (SK-MEL-2): > 100 µM (inactive)
GI50 (IGROV-1): > 100 µM (inactive)
GI50 (SN12C): > 100 µM (inactive)
GI50 (SK-MEL-5): > 100 µM (inactive)
GI50 (A498): > 100 µM (inactive)
GI50 (NCI-H226): > 100 µM (inactive)
GI50 (TK-10): > 100 µM (inactive)
GI50 (SR): > 100 µM (inactive)
